Test results: US20210047324A1 (Aptinyx Inc., priority 2018, published 2021)

Experiments:
Plasma stability (Rat) = format: in vitro ADME; conditions: after 60 minutes
Method: (§1) Plasma stability of disclosed compounds was investigated. The following table indicates the percent of compound remaining after 60 minutes.

NMDAR2B = target: T1, NMDAR2B (Homo sapiens, UniProt Q13224); test: NMDAR agonist assay, [3H]MK-801 binding, NMDAR2B expressing HEK cell membranes; format: biochemical; conditions: 50 μM glutamate; for EC50: read-out: NMDAR2B B: log EC50 (converted); for NMDAR2B A: % maximal [3H]MK-801 binding relative to 1 mM glycine / Emax: relative to 1 mM glycine; for Emax: read-out: NMDAR2B A: % maximal [3H]MK-801 binding relative to 1 mM glycine
T1 construct: expressed in transfected cells; host or cells: HEK cells (membrane extract)
T1 sequence (Q13224 27-1484, species assumed, other chains not shown): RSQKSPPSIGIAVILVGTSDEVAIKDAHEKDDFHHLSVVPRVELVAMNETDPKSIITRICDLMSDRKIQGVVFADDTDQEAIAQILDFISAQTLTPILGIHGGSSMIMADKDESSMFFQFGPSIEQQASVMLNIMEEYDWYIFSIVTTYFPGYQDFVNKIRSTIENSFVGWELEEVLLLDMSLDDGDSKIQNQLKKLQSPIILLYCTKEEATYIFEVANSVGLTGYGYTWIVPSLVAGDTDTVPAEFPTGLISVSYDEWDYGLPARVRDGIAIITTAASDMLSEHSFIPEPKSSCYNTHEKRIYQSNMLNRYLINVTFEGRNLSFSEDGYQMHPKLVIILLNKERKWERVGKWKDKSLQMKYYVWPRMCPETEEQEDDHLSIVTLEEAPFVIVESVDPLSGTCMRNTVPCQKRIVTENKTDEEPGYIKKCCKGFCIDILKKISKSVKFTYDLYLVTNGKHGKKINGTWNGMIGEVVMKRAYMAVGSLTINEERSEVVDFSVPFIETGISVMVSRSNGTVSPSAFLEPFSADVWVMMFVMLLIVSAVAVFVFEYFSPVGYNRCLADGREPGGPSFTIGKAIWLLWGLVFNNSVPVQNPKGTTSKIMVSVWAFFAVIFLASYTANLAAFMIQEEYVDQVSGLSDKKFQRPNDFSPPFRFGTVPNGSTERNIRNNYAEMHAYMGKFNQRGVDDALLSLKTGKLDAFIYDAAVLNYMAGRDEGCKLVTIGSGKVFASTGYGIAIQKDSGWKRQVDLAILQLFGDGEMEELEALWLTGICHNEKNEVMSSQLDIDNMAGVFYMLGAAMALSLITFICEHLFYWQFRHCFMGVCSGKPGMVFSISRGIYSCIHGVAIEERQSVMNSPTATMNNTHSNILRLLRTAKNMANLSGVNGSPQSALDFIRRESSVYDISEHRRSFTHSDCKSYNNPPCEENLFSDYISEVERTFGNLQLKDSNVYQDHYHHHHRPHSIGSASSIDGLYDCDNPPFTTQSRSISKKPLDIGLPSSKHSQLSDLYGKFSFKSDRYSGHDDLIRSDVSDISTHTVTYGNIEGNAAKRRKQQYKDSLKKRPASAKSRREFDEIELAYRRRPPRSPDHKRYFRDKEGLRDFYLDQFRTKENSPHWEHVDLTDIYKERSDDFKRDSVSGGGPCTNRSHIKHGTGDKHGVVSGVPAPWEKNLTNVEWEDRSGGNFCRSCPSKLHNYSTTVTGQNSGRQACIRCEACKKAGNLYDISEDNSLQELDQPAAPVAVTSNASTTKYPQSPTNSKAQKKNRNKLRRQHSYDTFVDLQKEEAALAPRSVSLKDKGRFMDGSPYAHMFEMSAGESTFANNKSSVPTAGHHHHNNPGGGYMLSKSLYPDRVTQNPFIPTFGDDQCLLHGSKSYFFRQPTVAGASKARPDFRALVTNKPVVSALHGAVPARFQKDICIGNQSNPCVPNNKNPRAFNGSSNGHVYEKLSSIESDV
Method: (§2) Assays were conducted as described by Moskal et al., “GLYX-13: a monoclonal antibody-derived peptide that acts as an N-methyl-D-aspartate receptor modulator,” Neuropharmacology, 49, 1077-87, 2005. These studies were designed to determine if the test compounds act to facilitate NMDAR activation in NMDAR2A, NMDAR2B, NMDAR2C or NMDAR2D expressing HEK cell membranes as measured by increases in [^3H]MK-801 binding.
(§3) In the assay, 300 μg of NMDAR expressing HEK cell membrane extract protein was preincubated for 15 minutes at […] in the presence of saturating concentrations of glutamate (50 μM) and varying concentrations of test compound (1×10^−15M-1×10^−7M), or 1 mM glycine. Following the addition of 0.3 μCi of [3H]MK-801 (22.5 Ci/mmol), reactions were again incubated for 15 minutes at 25° C. (nonequilibrium conditions). Bound and free [3H]MK-801 were separated via rapid filtration using a Brandel apparatus.
(§4) In analyzing the data, the DPM (disintegrations per minute) of [3H]MK-801 remaining on the filter were measured for each concentration of test compound or for 1 mM glycine. The DPM values for each concentration of a ligand (N=2) were averaged. The baseline value was determined from the best fit curve of the DPM values modeled using the GraphPad program and the log(agonist) vs. response (three parameters) algorithm was then subtracted from all points in the dataset. The % maximal [^3H]MK-801 binding was then calculated relative to that of 1 mM glycine: all baseline subtracted DPM values were divided by the average value for 1 mM glycine. The EC50 and % maximal activity were then obtained from the best fit curve of the % maximal [3H]MK-801 binding data modelled using the GraphPad program and the log(agonist) vs. response (three parameters) algorithm.
(§5) The tables below summarize the results for the wild type […] NMDAR2A, NMDAR2B, NMDAR2C, and NMDAR2D, and whether the compound is not an agonist (−), is an agonist (+), or is a strong agonist (++), where column A is based on the % maximal [3H]MK-801 binding relative to 1 mM glycine (−=0; <100%=+; and >100%=++); and column B is based on log EC50 values (0=−; ≥1×10^−9 M (e.g., −8)=+; and <1×10^−9 M (e.g., −10)=++).

[1] = Microsomal stability (Human); format: in vitro ADME; conditions: after 60 minutes
Method: (§6) Microsomal stability of disclosed compounds was investigated. The following table indicates the percent of compound remaining after 60 minutes.

[2] = Microsomal stability (Rat); format: in vitro ADME; conditions: after 60 minutes
Method: as §6

NMDAR2A = target: T2, NMDAR2A (Homo sapiens, UniProt Q12879); test: NMDAR agonist assay, [3H]MK-801 binding, NMDAR2A expressing HEK cell membranes; format: biochemical; design: key to NMDAR2A B: log EC50: 0=−; ≥1×10^−9 M (e.g., −8)=+; <1×10^−9 M (e.g., −10)=++; conditions: 50 μM glutamate; for EC50: read-out: NMDAR2A B: log EC50 (converted); for Emax: 0.25 h, read-out: NMDAR2A A: % maximal [3H]MK-801 binding relative to 1 mM glycine; for NMDAR2A A: % maximal [3H]MK-801 binding relative to 1 mM glycine / Emax: relative to 1 mM glycine
T2 construct: expressed in transfected cells; host or cells: HEK cells (membrane extract)
T2 sequence (Q12879 23-1464, species assumed, other chains not shown): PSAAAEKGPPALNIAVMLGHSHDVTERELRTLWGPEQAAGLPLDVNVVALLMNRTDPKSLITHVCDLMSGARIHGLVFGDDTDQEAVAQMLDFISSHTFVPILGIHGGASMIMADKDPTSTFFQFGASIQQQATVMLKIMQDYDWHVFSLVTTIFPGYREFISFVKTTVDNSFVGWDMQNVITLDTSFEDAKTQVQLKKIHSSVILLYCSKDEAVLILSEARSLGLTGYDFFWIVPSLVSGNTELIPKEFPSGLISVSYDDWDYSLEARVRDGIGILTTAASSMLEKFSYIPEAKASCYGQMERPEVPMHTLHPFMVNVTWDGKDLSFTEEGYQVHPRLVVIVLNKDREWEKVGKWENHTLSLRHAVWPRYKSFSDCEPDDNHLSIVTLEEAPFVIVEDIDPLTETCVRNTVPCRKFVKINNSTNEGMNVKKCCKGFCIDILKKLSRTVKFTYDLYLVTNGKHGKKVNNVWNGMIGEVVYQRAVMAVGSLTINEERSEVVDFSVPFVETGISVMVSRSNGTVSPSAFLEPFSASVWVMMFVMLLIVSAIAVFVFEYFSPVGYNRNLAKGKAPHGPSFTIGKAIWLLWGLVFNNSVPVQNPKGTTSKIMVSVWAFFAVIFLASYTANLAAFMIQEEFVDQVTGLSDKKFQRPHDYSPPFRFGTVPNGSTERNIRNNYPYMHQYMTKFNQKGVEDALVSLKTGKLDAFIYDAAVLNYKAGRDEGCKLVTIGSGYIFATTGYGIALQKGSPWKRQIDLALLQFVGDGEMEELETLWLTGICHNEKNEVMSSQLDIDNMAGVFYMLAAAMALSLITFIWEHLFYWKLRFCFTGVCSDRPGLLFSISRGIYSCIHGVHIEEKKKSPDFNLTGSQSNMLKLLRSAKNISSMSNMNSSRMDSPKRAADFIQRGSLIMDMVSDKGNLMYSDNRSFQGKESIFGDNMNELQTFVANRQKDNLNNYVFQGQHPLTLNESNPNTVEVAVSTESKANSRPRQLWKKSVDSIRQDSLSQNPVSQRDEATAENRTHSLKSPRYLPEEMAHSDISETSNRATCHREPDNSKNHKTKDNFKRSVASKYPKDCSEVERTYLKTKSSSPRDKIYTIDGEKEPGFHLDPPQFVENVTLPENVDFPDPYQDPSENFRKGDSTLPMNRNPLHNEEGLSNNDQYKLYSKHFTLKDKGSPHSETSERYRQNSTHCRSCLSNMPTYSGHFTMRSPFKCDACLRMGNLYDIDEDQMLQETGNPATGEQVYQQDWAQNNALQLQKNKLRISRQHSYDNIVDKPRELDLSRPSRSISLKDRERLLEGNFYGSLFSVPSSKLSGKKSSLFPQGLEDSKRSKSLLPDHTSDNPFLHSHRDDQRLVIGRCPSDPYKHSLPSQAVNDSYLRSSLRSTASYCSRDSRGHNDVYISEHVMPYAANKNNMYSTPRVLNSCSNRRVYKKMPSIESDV
Method: as §2, §3, §4, §5

Plasma stability (Human) = format: in vitro ADME; conditions: after 60 minutes
Method: as §1

[3] = Oral pharmacokinetics in Sprague Dawley rats (plasma, brain, CSF); format: in vivo; conditions: rat, 10 mg/kg
Method: In another experiment, Sprague Dawley rats were dosed per os (oral gavage) using a normal saline formulation containing 10 mg/kg of the compounds identified in the table below. Plasma, brain, and CSF samples were analyzed at various time points over a 24 hour period. The table below summarizes the results of the oral pharmacokinetics, where the first three values (Tmax, Cmax and AUClast) are plasma values.

[4] = IV pharmacokinetics in Sprague Dawley rats; format: in vivo; conditions: Sprague-Dawley, rat, in vivo, iv, 2 mg/kg, normal saline
Method: Sprague Dawley rats were dosed intravenously using a normal saline formulation containing 2 mg/kg of the compounds identified in the below table. The table below summarizes the results of the IV pharmacokinetics.

Compound | Plasma (Rat): percent of compound remaining (Plasma stability (Rat)) [%] | EC50 (NMDAR2B) [nM] | NMDAR2B A: % maximal [3H]MK-801 binding relative to 1 mM glycine (NMDAR2B) | Microsomal (Human): percent of compound remaining [1] [%] | Microsomal (Rat): percent of compound remaining [2] [%] | EC50 (NMDAR2A) [nM] | NMDAR2A A: % maximal [3H]MK-801 binding relative to 1 mM glycine (NMDAR2A) | Plasma (Human): percent of compound remaining (Plasma stability (Human)) [%] | Emax (NMDAR2B) [%] | Emax (NMDAR2A) [%] | further results
O=C1N(Cc2ccccc2)CC=CCC12CCCN2 (single isomer, unassigned) [GS-2, 7-benzyl-1,7-diazaspiro[4.6]undec-9-en-6-one] | 99 | < 1 | + (<100%=+) | 90 | 0 | ≥ 1 | + (<100%=+) | 98 |  |  | 
O=C1NCC=CCC12CCCN2Cc1ccccc1 (single isomer, unassigned) [GP-1, 1-benzyl-1,7-diazaspiro[4.6]undec-9-en-6-one] | 96 | < 1 |  | 80 | 2 | < 1 |  | 98 | > 100 | < 100 | 
O=C1N(Cc2ccccc2)CC=CCC12CCCN2 (single isomer, unassigned) [GS-1, 7-benzyl-1,7-diazaspiro[4.6]undec-9-en-6-one] | 95 | < 1 |  | 99 | 0 | < 1 |  | 97 | < 100 | < 100 | 
CC(C)CN1CCCC12CC=CCNC2=O (single isomer, unassigned) [GI-1, 1-isobutyl-1,7-diazaspiro[4.6]undec-9-en-6-one] | 102 | < 1 |  | 96 | 69 | < 1 |  | 96 | < 100 | < 100 | 
O=C1N(Cc2ccc(F)cc2)CC=CCC12CCCN2 (single isomer, unassigned) [GK-2, 7-(4-fluorobenzyl)-1,7-diazaspiro[4.6]undec-9-en-6-one] | 97 | < 1 | + (<100%=+) | 94 | 46 |  | − (−=0) | 92 |  |  | NMDAR2A B: log EC50 (NMDAR2A): −
NC(=O)CN1CCCC12CC=CCNC2=O (single isomer, unassigned) [GQ-1, 2-(6-oxo-1,7-diazaspiro[4.6]undec-9-en-1-yl)acetamide] | 98 | ≥ 1 |  | 88 | 87 | < 1 |  | 98 | > 100 | < 100 | 
CC(C)C(=O)N1CCCC12CC=CCNC2=O (single isomer, unassigned) [GH-2, 1-isobutyryl-1,7-diazaspiro[4.6]undec-9-en-6-one] |  | < 1 | ++ (>100%=++) | 87 | 104 | < 1 | + (<100%=+) |  |  |  | Tmax ([3]; Sprague-Dawley, po, per os, plasma, read-out: Tmax): 25.2 min; AUC(0-t) ([3]; Sprague-Dawley, plasma, po, per os): 11300 ng·h/mL; bioavailability ([3]; Sprague-Dawley, plasma, po, per os 10 mg/kg): 100%; Cmax ([3]; Sprague-Dawley, plasma, po, per os, plasma, read-out: Cmax): 5300 ng/mL; CSF Cmax ([3]; per os, CSF): 2296.73 ng/mL; Brain Cmax ([3]; per os, brain): 1424.03 ng/mL; AUC(0-t) [4]: 1990 ng·h/mL; clearance [4]: 16.7 mL/min/kg; half-life [4]: 25.8 min; Cmax ([4]; read-out: Cmax): 1500 ng/mL; Vd ([4]; read-out: Vss): 0.75 L/kg
O=C1NCC=CCC12CCCN2Cc1ccc(F)cc1 (single isomer, unassigned) [GJ-2, 1-(4-fluorobenzyl)-1,7-diazaspiro[4.6]undec-9-en-6-one] | 99 | < 1 | + (<100%=+) | 95 | 3 | < 1 | + (<100%=+) | 95 |  |  | 
O=C1NCC=CCC12CCCN2Cc1ccccc1 (single isomer, unassigned) [GP-2, 1-benzyl-1,7-diazaspiro[4.6]undec-9-en-6-one] | 85 | < 1 | + (<100%=+) | 89 | 7 | < 1 | ++ (>100%=++) | 96 |  |  | 
O=C1NCC=CCC12CCCN2Cc1ccc(F)cc1 (single isomer, unassigned) [GJ-1, 1-(4-fluorobenzyl)-1,7-diazaspiro[4.6]undec-9-en-6-one] | 100 | < 1 |  | 83 | 11 | < 1 |  | 105 | < 100 | < 100 | 
